According to a compilation of properties of binary mixtures (doi:10.1016/j.molliq.2022.120022):

Experiment: xn = mol fraction of the nth substance listed
Conditions: 100 kPa

O + C[N+](C)(C)CCO.NCC(=O)[O-]
x2 = 0
Conditions	speed of sound [m/s]	viscosity [mPa·s]
298.15 K	–	0.89
303.15 K	–	0.8
308.15 K	–	0.72
313.15 K	1529	0.66
318.15 K	–	0.61
323.15 K	–	0.56

C[N+](C)(C)CCO.NCC(=O)[O-] + O
Conditions	speed of sound [m/s]	viscosity [mPa·s]
298.15 K, x1 = 0.1	1927.4	5.83
298.15 K, x1 = 0.2004	2082.9	23.73
298.15 K, x1 = 0.3	2134.5	56.96
298.15 K, x1 = 0.3996	2152.4	99
298.15 K, x1 = 0.5004	2156.2	154.4
298.15 K, x1 = 0.6004	2156	216
298.15 K, x1 = 0.6966	2153.1	274
298.15 K, x1 = 0.8014	2151.8	348
298.15 K, x1 = 0.8996	2146	420
303.15 K, x1 = 0.1	1922.7	5.01
303.15 K, x1 = 0.2004	2073.3	19.44
303.15 K, x1 = 0.3	2122.9	45.62
303.15 K, x1 = 0.3996	2140.5	77.3
303.15 K, x1 = 0.5004	2144.8	115.5
303.15 K, x1 = 0.6004	2143.4	160.8
303.15 K, x1 = 0.8014	2136.2	257
303.15 K, x1 = 0.8996	2133.2	306
303.15 K, x1 = 1	2129.1	363
308.15 K, x1 = 0.2004	2063.4	16.15
308.15 K, x1 = 0.3	2111.5	37.06
308.15 K, x1 = 0.5004	2132.2	89.6
308.15 K, x1 = 0.6004	2130.3	122.8
308.15 K, x1 = 0.6966	2127.8	153.5
308.15 K, x1 = 0.8014	2125.2	191.6
308.15 K, x1 = 0.8996	2120.1	227
308.15 K, x1 = 1	2116	264
313.15 K, x1 = 0.1	1911.9	3.8
313.15 K, x1 = 0.2004	2053.2	13.57
313.15 K, x1 = 0.3	2099.8	30.58
313.15 K, x1 = 0.6004	2118	95.3
313.15 K, x1 = 0.6966	2115	118.6
313.15 K, x1 = 0.8014	2112.1	147.4
313.15 K, x1 = 0.8996	2107.2	172.7
313.15 K, x1 = 1	2103.5	201
318.15 K, x1 = 0.2004	2043	11.51
318.15 K, x1 = 0.6004	2105.6	75.6
318.15 K, x1 = 0.6966	2102.3	92.7
318.15 K, x1 = 0.8014	2098.7	114.4
318.15 K, x1 = 0.8996	2094.2	134.5
323.15 K, x1 = 0.1	1899.4	2.97
323.15 K, x1 = 0.2004	2032.2	9.83
323.15 K, x1 = 0.3	2076.6	21.79
323.15 K, x1 = 0.3996	2091.4	34.59
323.15 K, x1 = 0.5004	2094.9	46.6
323.15 K, x1 = 0.6004	2092.8	60.8
323.15 K, x1 = 0.6966	2089.9	74.1
323.15 K, x1 = 0.8014	2086.3	91
323.15 K, x1 = 0.8996	2081.8	105.2
323.15 K, x1 = 1	2078.3	121.1
